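Method: 48-hour compound exposure of cells in 96-well plates, five concentrations, linear interpolation of endpoints. Here, GI50 denotes the concentration required for 50% inhibition of growth.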 Activity calls are given as the source filed them. Rule as the data show it: active = GI50 up to about 1.1 µM and inactive = higher.
Tests used:
Assay in all cases: growth of human tumour cells (NCI), 48 h
786-0 = system: 786-0
A498 = system: A498
A549 = system: A549
ACHN = system: ACHN
BT-549 = system: BT-549
CAKI-1 = system: CAKI-1
CCRF-CEM = system: CCRF-CEM
COLO 205 = system: COLO 205
DU-145 = system: DU-145
EKVX = system: EKVX
HCC 2998 = system: HCC 2998
HCT-116 = system: HCT-116
HCT-15 = system: HCT-15
HL-60 = system: HL-60
HOP-62 = system: HOP-62
HOP-92 = system: HOP-92
HT-29 = system: HT-29
Hs-578T = system: Hs-578T
IGROV-1 = system: IGROV-1
K562 = system: K562
KM12 = system: KM12
LOX IMVI = system: LOX IMVI
M14 = system: M14
MCF7 = system: MCF7
MDA-MB-231 = system: MDA-MB-231
MDA-MB-435 = system: MDA-MB-435
MDA-N = system: MDA-N
MOLT-4 = system: MOLT-4
NCI-H226 = system: NCI-H226
NCI-H23 = system: NCI-H23
NCI-H460 = system: NCI-H460
NCI-H522 = system: NCI-H522
NCI/ADR-RES = system: NCI/ADR-RES
OVCAR-3 = system: OVCAR-3
OVCAR-4 = system: OVCAR-4
OVCAR-5 = system: OVCAR-5
OVCAR-8 = system: OVCAR-8
PC-3 = system: PC-3
RXF 393 = system: RXF 393
SF-268 = system: SF-268
SF-295 = system: SF-295
SF-539 = system: SF-539
SK-MEL-28 = system: SK-MEL-28
SK-MEL-2 = system: SK-MEL-2
SK-MEL-5 = system: SK-MEL-5
SK-OV-3 = system: SK-OV-3
SN12C = system: SN12C
SNB-19 = system: SNB-19
SR = system: SR
SW-620 = system: SW-620
T47D = system: T47D
TK-10 = system: TK-10
U-251 = system: U-251
UACC-257 = system: UACC-257
UACC-62 = system: UACC-62
UO-31 = system: UO-31
Malme-3M = system: Malme-3M
RPMI-8226 = system: RPMI-8226
SNB-75 = system: SNB-75

## CN1C(Cl)=NS(=O)(=O)c2ccccc21
786-0
  GI50: > 100 µM (inactive)
A498
  GI50: 58.2 µM (inactive)
A549
  GI50: > 100 µM (inactive)
ACHN
  GI50: > 100 µM (inactive)
BT-549
  GI50: > 100 µM (inactive)
CAKI-1
  GI50: 16.9 µM (inactive)
CCRF-CEM
  GI50: 34 µM (inactive)
COLO 205
  GI50: 43 µM (inactive)
DU-145
  GI50: > 100 µM (inactive)
EKVX
  GI50: > 100 µM (inactive)
HCC 2998
  GI50: > 100 µM (inactive)
HCT-116
  GI50: > 100 µM (inactive)
HCT-15
  GI50: > 100 µM
HL-60
  GI50: 35.7 µM (inactive)
HOP-62
  GI50: > 100 µM (inactive)
HOP-92
  GI50: > 100 µM (inactive)
HT-29
  GI50: > 100 µM (inactive)
Hs-578T
  GI50: > 100 µM (inactive)
IGROV-1
  GI50: > 100 µM (inactive)
K562
  GI50: > 100 µM (inactive)
KM12
  GI50: > 100 µM (inactive)
LOX IMVI
  GI50: > 100 µM (inactive)
M14
  GI50: > 100 µM (inactive)
MCF7
  GI50: > 100 µM (inactive)
MDA-MB-231
  GI50: > 100 µM (inactive)
MDA-MB-435
  GI50: > 100 µM (inactive)
MDA-N
  GI50: > 100 µM (inactive)
MOLT-4
  GI50: 51.4 µM (inactive)
NCI-H226
  GI50: > 100 µM (inactive)
NCI-H23
  GI50: > 100 µM (inactive)
NCI-H460
  GI50: 92.7 µM (inactive)
NCI-H522
  GI50: 28 µM (inactive)
NCI/ADR-RES
  GI50: > 100 µM (inactive)
OVCAR-3
  GI50: > 100 µM (inactive)
OVCAR-4
  GI50: > 100 µM (inactive)
OVCAR-5
  GI50: > 100 µM (inactive)
OVCAR-8
  GI50: > 100 µM (inactive)
PC-3
  GI50: > 100 µM (inactive)
RXF 393
  GI50: > 100 µM (inactive)
SF-268
  GI50: > 100 µM (inactive)
SF-295
  GI50: > 100 µM (inactive)
SF-539
  GI50: > 100 µM (inactive)
SK-MEL-28
  GI50: > 100 µM (inactive)
SK-MEL-2
  GI50: > 100 µM (inactive)
SK-MEL-5
  GI50: > 100 µM (inactive)
SK-OV-3
  GI50: > 100 µM (inactive)
SN12C
  GI50: > 100 µM (inactive)
SNB-19
  GI50: > 100 µM (inactive)
SR
  GI50: 18.7 µM (inactive)
SW-620
  GI50: > 100 µM (inactive)
T47D
  GI50: > 100 µM (inactive)
TK-10
  GI50: > 100 µM (inactive)
U-251
  GI50: > 100 µM (inactive)
UACC-257
  GI50: > 100 µM (inactive)
UACC-62
  GI50: > 100 µM (inactive)
UO-31
  GI50: > 100 µM (inactive)

## C#C[C@]1(O)[C@@H](CO)O[C@@H](n2ccc(=O)[nH]c2=O)[C@@H]1O
786-0
  GI50: < 0.0121 µM (active)
A498
  GI50: 0.724 µM (active)
A549
  GI50: 0.0308 µM (active)
ACHN
  GI50: 0.0272 µM (active)
BT-549
  GI50: 0.374 µM (active)
CAKI-1
  GI50: < 0.0161 µM (active)
CCRF-CEM
  GI50: 0.19 µM (active)
COLO 205
  GI50: < 0.01 µM (active)
DU-145
  GI50: 0.0391 µM (active)
EKVX
  GI50: 4.72 µM (inactive)
HCC 2998
  GI50: 0.0592 µM (active)
HCT-116
  GI50: < 0.01 µM (active)
HCT-15
  GI50: 0.0186 µM
HL-60
  GI50: 0.356 µM (active)
HOP-62
  GI50: 0.147 µM (active)
HOP-92
  GI50: 0.132 µM (active)
HT-29
  GI50: 0.0171 µM (active)
Hs-578T
  GI50: 1.41 µM (inactive)
IGROV-1
  GI50: 0.0745 µM (active)
K562
  GI50: < 0.0146 µM (active)
KM12
  GI50: 0.144 µM (active)
LOX IMVI
  GI50: 0.0246 µM (active)
M14
  GI50: 0.237 µM (active)
MCF7
  GI50: 0.0339 µM (active)
MDA-MB-231
  GI50: 0.251 µM (active)
MDA-MB-435
  GI50: 0.173 µM (active)
MDA-N
  GI50: 0.0822 µM (active)
MOLT-4
  GI50: < 0.0177 µM (active)
Malme-3M
  GI50: 0.288 µM (active)
NCI-H226
  GI50: 0.0746 µM (active)
NCI-H23
  GI50: 0.428 µM (active)
NCI-H460
  GI50: < 0.01 µM (active)
NCI-H522
  GI50: 0.0214 µM (active)
NCI/ADR-RES
  GI50: < 0.0134 µM (active)
OVCAR-3
  GI50: 0.513 µM (active)
OVCAR-4
  GI50: 0.43 µM (active)
OVCAR-5
  GI50: 0.406 µM (active)
OVCAR-8
  GI50: < 0.01 µM (active)
PC-3
  GI50: 0.25 µM (active)
RPMI-8226
  GI50: 0.0101 µM (active)
SF-268
  GI50: 0.116 µM (active)
SF-295
  GI50: 0.191 µM (active)
SF-539
  GI50: 0.0117 µM (active)
SK-MEL-28
  GI50: 0.791 µM (active)
SK-MEL-2
  GI50: 0.15 µM (active)
SK-MEL-5
  GI50: 0.441 µM (active)
SK-OV-3
  GI50: 1.97 µM (inactive)
SN12C
  GI50: < 0.0184 µM (active)
SNB-19
  GI50: 1.03 µM (active)
SNB-75
  GI50: 0.357 µM (active)
SR
  GI50: 62.4 µM (inactive)
SW-620
  GI50: 0.082 µM (active)
T47D
  GI50: 0.0692 µM (active)
TK-10
  GI50: 0.413 µM (active)
U-251
  GI50: 0.121 µM (active)
UACC-257
  GI50: 1.81 µM (inactive)
UACC-62
  GI50: 0.156 µM (active)
UO-31
  GI50: 0.0278 µM (active)

## COc1cc2ncnc(NS(=O)(=O)c3cc4ccccc4s3)c2cc1OC
786-0
  GI50: > 100 µM (inactive)
A498
  GI50: 56.4 µM (inactive)
A549
  GI50: > 100 µM (inactive)
ACHN
  GI50: > 100 µM (inactive)
BT-549
  GI50: > 100 µM (inactive)
CAKI-1
  GI50: > 100 µM (inactive)
CCRF-CEM
  GI50: > 100 µM (inactive)
COLO 205
  GI50: > 100 µM (inactive)
DU-145
  GI50: > 100 µM (inactive)
EKVX
  GI50: 75 µM (inactive)
HCC 2998
  GI50: > 100 µM (inactive)
HCT-116
  GI50: > 100 µM (inactive)
HCT-15
  GI50: > 100 µM
HOP-62
  GI50: > 100 µM (inactive)
HOP-92
  GI50: 34 µM (inactive)
HT-29
  GI50: > 100 µM (inactive)
Hs-578T
  GI50: 49.9 µM (inactive)
IGROV-1
  GI50: 81.5 µM (inactive)
K562
  GI50: 56.1 µM (inactive)
KM12
  GI50: > 100 µM (inactive)
LOX IMVI
  GI50: > 100 µM (inactive)
M14
  GI50: > 100 µM (inactive)
MCF7
  GI50: > 100 µM (inactive)
MDA-MB-231
  GI50: > 100 µM (inactive)
MDA-MB-435
  GI50: > 100 µM (inactive)
MDA-N
  GI50: > 100 µM (inactive)
MOLT-4
  GI50: > 100 µM (inactive)
Malme-3M
  GI50: > 100 µM (inactive)
NCI-H226
  GI50: > 100 µM (inactive)
NCI-H23
  GI50: 93.1 µM (inactive)
NCI-H460
  GI50: > 100 µM (inactive)
NCI-H522
  GI50: 28.2 µM (inactive)
NCI/ADR-RES
  GI50: > 100 µM (inactive)
OVCAR-3
  GI50: > 100 µM (inactive)
OVCAR-4
  GI50: 92.7 µM (inactive)
OVCAR-5
  GI50: > 100 µM (inactive)
OVCAR-8
  GI50: > 100 µM (inactive)
PC-3
  GI50: > 100 µM (inactive)
RPMI-8226
  GI50: 58.3 µM (inactive)
RXF 393
  GI50: 29.8 µM (inactive)
SF-268
  GI50: > 100 µM (inactive)
SF-295
  GI50: > 100 µM (inactive)
SF-539
  GI50: > 100 µM (inactive)
SK-MEL-2
  GI50: > 100 µM (inactive)
SK-MEL-5
  GI50: > 100 µM (inactive)
SK-OV-3
  GI50: > 100 µM (inactive)
SN12C
  GI50: 70.5 µM (inactive)
SNB-19
  GI50: > 100 µM (inactive)
SNB-75
  GI50: 47.8 µM (inactive)
SR
  GI50: > 100 µM (inactive)
SW-620
  GI50: > 100 µM (inactive)
T47D
  GI50: 25.2 µM (inactive)
TK-10
  GI50: > 100 µM (inactive)
U-251
  GI50: > 100 µM (inactive)
UACC-257
  GI50: > 100 µM (inactive)
UACC-62
  GI50: 89.1 µM (inactive)
UO-31
  GI50: 76 µM (inactive)

— ChEMBL document CHEMBL1201862, “PubChem BioAssay data set” (2004)
